No end group written: not given here.
Assays:
[1] = target: T1, peripheral CCK receptors (pancreas) (Rattus norvegicus, UniProt P30551); experiment: peripheral CCK receptor binding affinity on rat pancreas homogenate (inhibition of 3[H]-CCK-8 binding); set-up: species or system rat (male Wistar); conditions: 0.3 nM 3[H]-CCK-8, 90 min, 25° C., pH 7.4, calculated from IC50 by Cheng-Prusoff; for Ki: read-out: In vitro binding to peripheral CCK receptors (pancreas) pKi values (converted)
T1 construct: Whole pancreas glands from male Wistar rats with a body weight of 150-300 g; from tissue; host or cells: whole pancreas glands of male Wistar rats, washed homogenate
T1 sequence (P30551 1-444): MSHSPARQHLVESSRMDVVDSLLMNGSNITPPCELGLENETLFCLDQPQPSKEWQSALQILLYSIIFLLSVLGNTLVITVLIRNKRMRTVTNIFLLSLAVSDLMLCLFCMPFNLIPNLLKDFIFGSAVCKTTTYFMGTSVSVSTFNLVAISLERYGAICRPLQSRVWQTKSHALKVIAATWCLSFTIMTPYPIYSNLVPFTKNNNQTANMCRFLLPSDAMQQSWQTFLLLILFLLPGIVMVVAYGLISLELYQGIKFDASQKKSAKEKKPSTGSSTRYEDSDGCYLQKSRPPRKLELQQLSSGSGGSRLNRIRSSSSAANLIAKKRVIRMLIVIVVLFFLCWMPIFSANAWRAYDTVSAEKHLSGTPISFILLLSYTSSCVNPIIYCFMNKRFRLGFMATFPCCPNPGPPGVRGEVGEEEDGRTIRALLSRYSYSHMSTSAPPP
Procedure: The affinity of the compounds of formula I for peripheral CCK receptors was measured in vitro on rat pancreas homogenate. The inhibition of the binding of the physiologically relevant octopeptide CCK-8 to peripheral CCK receptors by the test substances was determined.
The receptor binding studies were carried out by a modification of the method of van Dijk et al. (J. Neuroscience 4 (1984), 1021-1033), using soya bean trypsin inhibitor (=SBTI) as protease inhibitor. ^3 [H]-CCK-8, code TRK 775, from Amersham Int., having a specific activity of 60-90 Ci/mmol, was used as tritium-labelled CCK-8.
Whole pancreas glands from male Wistar rats with a body weight of 150-300 g, which had been sacrificed by decapitation, were freed of fatty tissue and homogenized for 15 seconds in a 50-fold volume of an ice-cold test buffer solution (10 mmol 2-[4-(2-hydroxyethyl)-piperazin-1-yl]-ethanesulfonic acid (=HEPES), 130 mmol sodium chloride, 5 mmol magnesium chloride, 0.02% bacitracins, 0.01% SBTI, pH 7.4) with a Kinematica Polytron type homogenizer. The homogenates were then centrifuged at 48,000 g for 10 minutes. This washing method was repeated. After the last centrifugation, the residue which was obtained each time in the form of a pellet was suspended in a 550-fold volume of the test buffer solution and immediately used for the measurement.
For the binding test, 500 μl of the tissue homogenate were incubated with 50 μl of test buffer solution or 50 μl of a solution of the compound to be investigated and with 50 μl of a ^3 [H]-CCK-8 solution (final concentration 0.3 nM). The non-specific binding was assumed to be 0.1 μmol CCK-8. The incubation lasted 90 minutes at 25° C. All the compounds were measured 3 times at each of several concentrations.
Aqueous solutions were employed as test substance solutions and were prepared by appropriate dilution of 60×10^-4 molar aqueous stock solutions. Test substances which are sparingly soluble in water were first dissolved in 96% ethanol, and this solution was diluted with sufficient water for the ethanol concentration not to exceed 1.6% by volume in the solution to be tested.
Bound and free ^3 [H]-CCK-8 were separated by filtration through glass fiber filters. The filters were washed twice with 3 ml of HEPES solution each time and then placed in the scintillation solution (SAVE scintillation solution from Packard) in the dark overnight and counted in a Packard TriCarb 1500™liquid scintillation counter. The IC50 of the respective test substance was determined to be that concentration which caused a 50% inhibition of the specific binding of tritiated CCK-8 to the receptors. From this, the corresponding pKi value was calculated using the Cheng-Prusoff equation. […]

[2] = determination of the minimum toxic dose; format: in vivo, mouse (male); conditions: mouse
Procedure: Male mice weighing 20-25 g were given maximum oral doses of 300 mg/kg of the test substance. The animals were observed carefully for three hours for symptoms of toxicity. In addition, all symptoms and deaths were recorded for a period of 24 hours after administration. Concomitant symptoms were likewise observed and recorded. If death or serious symptoms of toxicity were observed, further mice were given increasingly lower doses. The lowest dose which caused death or serious symptoms of toxicity is indicated in the following Table A as the minimum toxic dose.

[3] = system: CCK-induced gallbladder emptying; experiment: inhibitory effect of test substances on CCK-induced gallbladder emptying (gallbladder weight); format: in vivo, mouse (female NMRI)
Procedure: CCK causes a contraction of the muscles of the gallbladder and thus an emptying of the gallbladder. […] Intraperitoneal doses of 0.1 μg/kg CCK-8 may result in the weight of the gallbladders decreasing to about 1/10 of the original weight.
Female NMRI mice having a body weights of 20-25 g were used in groups of 10 animals each. After withdrawal of feed for 24 hours (drinking water ad libitum) the animals received an oral dose of the test substance suspended in a volume of 10 ml/kg of body weight of a 1% strength Tylose® solution (=methylcellulose) or in a volume of 10 ml/kg of body weight of a solubilizer solution which contained 5% glycerol, 87% polyethylene glycol 400, and 8% water. Two control groups each received only the Tylose® solution or the solution containing the solubilizer polyethylene glycol. One of the control groups and all the animals treated with test substance received 0.1 Ig/kg CCK-8 injected i.p. 60 minutes later.
The mice were sacrificed 5 minutes after the CCK-8 administration, and the gallbladders were excised and weighed.
The following Table C lists the percentage inhibition of the CCK-8 effect on gallbladder weights caused by the test substances.

[4] = system: CCK-induced disturbance of stomach emptying; experiment: effect of test substances on CCK-induced disturbances of emptying of the stomach (charcoal transport into duodenum); format: in vivo, mouse (female NMRI)
Procedure: Doses of CCK lead to substantial blockade of the transpyloric transport of chyme from the stomach into the duodenum. The ability of the test substances to eliminate this blocking effect of CCK was investigated.
Female NMRI mice having body weights of 20-25 g were used in groups of ten animals each. […] A control group received only the Tylose® solution or the solution containing the solubilizer polyethylene glycol in each case. 60 minutes later the animals were given a subcutaneous injection of 80 Ig/kg CCK-8. After a further 5 minutes the animals were each orally administered 0.3 ml of a charcoal suspension (5% charcoal in 2% strength Tylose solution). The mice were sacrificed 5 minutes later and subsequently dissected. They were examined to find whether charcoal suspension had advanced into the duodenum.
The percentage of animals in which the CCK effect was eliminated and charcoal suspension was found in the duodenum after administration of the test substances was determined.

[5] = oral, lowest dose causing death or serious symptoms of toxicity, max 300 mg/kg, 24 h
[6] = dose 1.0 μmol/kg mouse oral, CCK-8 s.c. 60 min later
[7] = dose 0.1 μmol/kg mouse oral, CCK-8 s.c. 60 min later
[8] = dose 10 μmol/kg mouse oral, CCK-8 s.c. 60 min later
[9] = dose 1.0* μmol/kg mouse oral, * = administered in solution containing solubilizer (PEG 400)

| Molecule | Ki [1] | Minimum toxic dose [2, 5] | other results |
| --- | --- | --- | --- |
| Cc1ccc(C2=NC(NC(=O)c3cc4cccc5c4n3CCC5)C(=O)N(C)c3ccccc32)cc1 (stereo not shown) [Example 30] | 2.34 nM | 300 mg/kg | – |
| COc1ccc2c(c1)N(C)C(=O)C(NC(=O)c1cc3cccc4c3n1CCC4)N=C2c1ccc(F)cc1F (stereo not shown) [Example 15] | 1.23 nM | – | % Inhibition of CCK-induced Gallbladder Emptying ([3]; dose 10 μmol/kg mouse oral, CCK-8 i.p. 60 min later): < 25%; % Inhibition of CCK-induced Gallbladder Emptying ([3]; dose 100 μmol/kg mouse oral, CCK-8 i.p. 60 min later): 100%; % Inhibition of CCK-induced Gallbladder Emptying ([3]; dose 0.1* μmol/kg mouse oral, * = administered in solution containing solubilizer): < 25%; % of Animals in which the CCK Effect was Eliminated [4, 6]: 57%; % of Animals in which the CCK Effect was Eliminated ([4]; dose 0.10* μmol/kg mouse oral, * = administered in solution containing solubilizer (PEG 400)): 90% |
| COc1ccc2c(c1)N(C)C(=O)C(NC(=O)c1cc3cccc4c3n1CCC4)N=C2c1ccccc1 (single isomer, unassigned; (-)) [Example 2a, (-)-3-[(4H-pyrrolo[3,2,1-ij]-5,6-dihydroquinoline-2-carbonyl)-amino]-8-methoxy-1-methyl-2-oxo-5-phenyl-1H-2,3-dihydro-1,4-benzodiazepine] | 0.257 nM | – | % Inhibition of CCK-induced Gallbladder Emptying ([3]; dose 0.46 μmol/kg mouse oral, CCK-8 i.p. 60 min later): 16%; % of Animals in which the CCK Effect was Eliminated [4, 7]: 100% |
| CC(C)N1C(=O)C(NC(=O)c2cc3cccc4c3n2CCC4)N=C(c2ccccc2)c2ccccc21 (stereo not shown) [Example 25] | 24 nM | > 300 mg/kg | – |
| Cc1ccc2c(c1)C(c1ccccc1)=NC(NC(=O)c1cc3cccc4c3n1CCC4)C(=O)N2C (stereo not shown) [Example 18] | 1.17 nM | > 300 mg/kg | – |
| COc1ccc2c(c1)N(C)C(=O)C(NC(=O)c1cc3cccc4c3n1CCC4)N=C2c1c(F)cccc1F (stereo not shown) [Example 13] | 1 nM | > 300 mg/kg | % of Animals in which the CCK Effect was Eliminated [4, 8]: 83%; % of Animals in which the CCK Effect was Eliminated [4, 9]: 100% |
| CN1C(=O)C(NC(=O)c2cc3cccc4c3n2CCS4)N=C(c2ccccc2)c2ccccc21 (stereo not shown) [Example 38] | 0.977 nM | – | – |
| Cc1ccc2c(c1)C(c1ccccc1F)=NC(NC(=O)c1cc3cccc4c3n1CCC4)C(=O)N2C (stereo not shown) [Example 10] | – | 300 mg/kg | % of Animals in which the CCK Effect was Eliminated [4, 7]: 40%; In vitro binding to peripheral CCK receptors (pancreas) pKi values [1]: 8.75 |
| O=C(NC1N=C(c2ccccc2)c2ccccc2N(CC2CC2)C1=O)c1cc2cccc3c2n1CCC3 (stereo not shown) [Example 23] | 10 nM | > 300 mg/kg | – |
| CCK-8: the octapeptide CCK-8 is the smallest unit with the complete spectrum of CCK effects (DYMGWMDF; ends and bridges not checked; UniProt P06307 96-103, looked up) [reference compound] | – | – | weight of the gallbladders decreasing to fraction of the original weight ([3]; intraperitoneal 0.1 μg/kg CCK-8): about 1/10; animals with traces of charcoal suspension in the duodenum ([4]; control animals which received a dose of CCK (80 Ig/kg CCK-8 subcutaneous), no test substance): not more than 5% |
| CN1C(=O)C(NC(=O)c2cc3cc(F)cc4c3n2CCC4)N=C(c2ccccc2)c2cc(Cl)ccc21 (stereo not shown) [Example 26] | 6.17 nM | – | – |
| CN1C(=O)C(NC(=O)c2cc3cccc4c3n2CCO4)N=C(c2ccccc2)c2ccccc21 (stereo not shown) [Example 37] | 0.646 nM | – | – |
| Cc1ccc2c(c1)C(c1cccs1)=NC(NC(=O)c1cc3cccc4c3n1CCC4)C(=O)N2C (stereo not shown) [Example 8, 3-[(4H-Pyrrolo[3,2,1-ij]-5,6-dihydroquinoline-2-carbonyl)-amino]-1,7-dimethyl-2-oxo-5-(2-thienyl)-1H-2,3-dihydro-1,4-benzodiazepine] | 9.12 nM | – | – |
| CN1C(=O)C(NC(=O)c2cc3cccc4c3n2CCC4)N=C(c2ccc(F)cc2F)c2ccccc21 (stereo not shown) [Example 11] | 2.4 nM | 300 mg/kg | – |
| COc1ccc2c(c1)N(C)C(=O)C(NC(=O)c1cc3cccc4c3n1CCC4)N=C2c1c(F)cccc1OCCC(C)C (stereo not shown) [Example 17] | 10 nM | – | % of Animals in which the CCK Effect was Eliminated [4, 9]: 50% |
| CN1C(=O)C(NC(=O)c2cc3cccc4c3n2CCC4)N=C(C2CCCCC2)c2ccccc21 (stereo not shown) [Example 4, 3-[(4H-pyrrolo[3,2,1-ij]-5,6-dihydroquinoline-2-carbonyl)-amino]-1-methyl-2-oxo-5-cyclohexyl-1H-2,3-dihydro-1,4-benzodiazepine] | 2.51 nM | – | % of Animals in which the CCK Effect was Eliminated [4, 6]: 45%; Minimum toxic dose ([2]; in vivo, 1440 min): > 300 mg/kg |
| CN1C(=O)C(NC(=O)c2cc3cccc4c3n2CCC4)N=C(c2ccccc2F)c2ccccc21 (stereo not shown) [Example 22] | 0.912 nM | > 300 mg/kg | – |
| Cc1ccc2c(c1)C(c1ccc(Cl)c(Cl)c1)=NC(NC(=O)c1cc3cccc4c3n1CCC4)C(=O)N2C (stereo not shown) [Example 27] | – | – | % of Animals in which the CCK Effect was Eliminated [4, 6]: 40% |
| CN1C(=O)C(NC(=O)c2cc3cc(F)cc4c3n2CCC4)N=C(c2ccccc2)c2ccccc21 (stereo not shown) [Example 5, 3-[(8-fluoro-4H-pyrrolo[3,2,1-ij]-5,6-dihydroquinoline-2-carbonyl)-amino]-2-oxo-1-methyl-5-phenyl-1H-2,3-dihydro-1,4-benzodiazepine] | 1.45 nM | > 300 mg/kg | % of Animals in which the CCK Effect was Eliminated [4, 8]: 75% |

From patent US5010076A, “1,7-fused 1H-indole-2-carboxylic acid-N-(1,4-benzodiazepin-3-yl)amides” (Kali-Chemie Pharma GmbH, priority 1989, dated 1991)
